Experimental findings from US7547700B2, “Aryl-[4-halo-4(heteroarylmethylamino)-methyl]-piperidin-1-1yl]-methanone derivatives, methods for production and use thereof as medicaments” (PIERRE Fabre Medicament, priority 2002, dated 2009) are described below.

Assay [1] addresses T1, 5-HT1A receptors (Rattus norvegicus, UniProt P19327).
T1 construct: For these experiments, rat cerebral cortices are used; from tissue; host or cells: rat cerebral cortex homogenate
T1 sequence (P19327 1-422): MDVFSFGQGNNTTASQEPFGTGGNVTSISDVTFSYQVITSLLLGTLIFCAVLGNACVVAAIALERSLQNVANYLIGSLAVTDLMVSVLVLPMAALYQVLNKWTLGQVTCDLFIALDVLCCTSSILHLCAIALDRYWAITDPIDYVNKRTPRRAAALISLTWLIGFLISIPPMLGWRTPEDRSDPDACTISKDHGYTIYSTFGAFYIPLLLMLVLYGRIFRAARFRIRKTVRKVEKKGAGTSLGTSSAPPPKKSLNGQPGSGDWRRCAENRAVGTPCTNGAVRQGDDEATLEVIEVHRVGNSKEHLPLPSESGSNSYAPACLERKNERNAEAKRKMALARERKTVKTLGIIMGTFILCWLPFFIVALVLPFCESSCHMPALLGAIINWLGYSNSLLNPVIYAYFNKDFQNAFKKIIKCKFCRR
The assay can be described thus: Affinity for the 5-HT1A receptors, displacement of [3H]8-OH-DPAT. The class given is binding. The procedure:
Measurement of the affinity of the compounds in the invention for the 5-HT1A receptors
For these experiments, rat cerebral cortices are used. After thawing the brain in Tris-HCl buffer (50 mmol, pH=7.4) at 25° C., the cerebral cortex is removed and homogenized in 20 volumes of buffer maintained at 4° C. The homogenate is centrifuged at 39 000×g for 10 minutes, and the centrifugation pellet is suspended in the same volume of buffer and recentrifuged. After resuspending under the same conditions, the homogenate is incubated for 10 minutes at 37° C. and then recentrifuged. The final pellet is suspended in cold Tris-HCl reaction buffer (50 mmol) at 25° C. containing […] of pargyline, 4 mmol of CaCl2 and 0.10% of ascorbic acid. The final concentration of tissue in the incubation medium is 10 mg/tube.
The nonspecific binding is defined by using […] of serotonin. The reaction tubes are incubated at 23° C. for 30 minutes and their content is then rapidly filtered under vacuum through Whatman GF/B filters, and the tubes are rinsed with twice 5 ml of tris-HCl buffer at 25° C. The radio-activity collected on the filter is analyzed by liquid scintillation, by adding 4 ml of scintillant liquid (Emulsifier Safe, Packard, Warrenville, USA). All the experiments are performed in triplicate.
(In a radioligand displacement assay an active substance lowers the binding of a labelled ligand.)

Assay [2] addresses T2, 5-HT1A receptors (Homo sapiens, UniProt P08908).
T2 construct: Gibco Biocult; Laboratory, Paisley UK; host or cells: unspecified cells; membrane preparation
T2 sequence (P08908 1-422): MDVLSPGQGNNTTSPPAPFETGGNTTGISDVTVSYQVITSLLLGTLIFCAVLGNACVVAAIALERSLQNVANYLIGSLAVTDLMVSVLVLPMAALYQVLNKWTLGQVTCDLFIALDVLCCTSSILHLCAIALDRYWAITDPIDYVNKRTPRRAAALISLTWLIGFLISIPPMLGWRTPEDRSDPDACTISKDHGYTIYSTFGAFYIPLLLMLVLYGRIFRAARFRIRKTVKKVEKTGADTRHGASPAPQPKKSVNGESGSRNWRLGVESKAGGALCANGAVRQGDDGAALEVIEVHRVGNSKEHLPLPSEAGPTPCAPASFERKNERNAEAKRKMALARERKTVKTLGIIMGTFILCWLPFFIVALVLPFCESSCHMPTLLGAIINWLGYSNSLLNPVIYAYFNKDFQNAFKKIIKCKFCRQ
Put plainly: Efficacy: stimulation of [35S]GTPγS binding in a cell membrane preparation. Conditions: [35S]GTPγS binding, maximum stimulation defined with serotonin (10 μmmol); read-out: % stimulation Maximum effect. The class given is biochemical. As for the experimental part:
Measurement of the Efficacy of the Compounds of the Invention
The cells (Gibco Biocult. Laboratory, Paisley UK) are collected in phosphate buffer (pH=7.4) and centrifuged at 48 000 g for 20 minutes. The centrifugation pellet is homogenized in Hepes (20 mmol, pH=7.4) containing EDTA (10 mmol) and recentrifuged at 48 000×g for 10 minutes. The centrifugation pellet is washed twice in Hepes (10 mmol, pH=7.4) containing EDTA (0.1 mmol). The pellet is stored at −80° C. in portions of 600 to 750 μg of protein. […] The incubation medium contains 0.4 ml of membrane preparation and 0.05 ml of test compound. After incubation for 30 minutes at 25° C., 0.05 ml of [^35S]GTPγS (500 picomol), ([^35S]GTPγS (1100 Ci/mmol), Amersham, Les Ulis France), is added and the mixture incubated for 30 minutes. The reactions are quenched by addition of 3 ml of ice-cold Hepes (20 mmol) containing 3 mmol of MgCl2 and rapid filtration through Whatman GF/B filters. The tubes are rinsed 3 times with 5 ml of Hepes buffer at 25° C. The radioactivity collected on the filter is analyzed by liquid scintillation by adding 4 ml of scintillant liquid (Emulsifier Safe, Packard). […] All the experiments are performed in triplicate.

The target of assay [3] is T3, dopaminergic D2 receptors (Rattus norvegicus, UniProt P61169).
T3 construct: For these experiments, rat striatum is used; from tissue; host or cells: rat striatum homogenate
T3 sequence (P61169 whole entry): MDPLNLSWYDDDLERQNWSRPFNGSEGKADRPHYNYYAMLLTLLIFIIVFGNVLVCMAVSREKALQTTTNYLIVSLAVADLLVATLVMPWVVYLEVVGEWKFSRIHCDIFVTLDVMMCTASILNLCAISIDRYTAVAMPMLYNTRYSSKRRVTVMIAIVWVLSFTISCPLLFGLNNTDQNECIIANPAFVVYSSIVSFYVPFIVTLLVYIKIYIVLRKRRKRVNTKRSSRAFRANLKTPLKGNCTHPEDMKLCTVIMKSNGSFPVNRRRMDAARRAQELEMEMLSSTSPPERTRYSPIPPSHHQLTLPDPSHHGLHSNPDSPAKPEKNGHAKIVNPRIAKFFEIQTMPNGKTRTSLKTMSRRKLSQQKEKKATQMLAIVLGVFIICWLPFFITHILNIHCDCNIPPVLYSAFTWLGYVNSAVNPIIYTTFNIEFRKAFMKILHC
Put plainly: Affinity for the D2 receptors, displacement of [3H]YM-09151-2. It is filed as binding. Conditions: rat striatum, [3H]YM-09151-2 displacement, mean of at least 3 experiments; read-out: D2 pKi (converted). The procedure: Measurement of the affinity of the compounds of the invention for the D2 receptors
For these experiments, rat striatum is used. After thawing the brain in Tris-HCl buffer (50 mmol, pH=7.4) at 25° C., the striatum is removed and homogenized in 40 volumes of buffer maintained at 4° C. The homogenate is centrifuged at 20 000×g for 10 minutes, and the centrifugation pellet is suspended in the same volume of buffer and recentrifuged. The final pellet is suspended in cold Tris-HCl reaction buffer at 25° C. containing 120 mmol of NaCl and 5 mmol of KCl. The final concentration of tissue in the incubation medium is 2 mg/tube. […] The nonspecific binding is defined by using […] of (+)-butaclamol. The reaction tubes are incubated at 23° C. for 60 minutes and their content is then rapidly filtered through Whatman GF/B filters, and the tubes are rinsed twice with 5 ml of Tris-HCl buffer at 25° C. The radioactivity collected on the filter is analyzed by liquid scintillation, by adding 4 ml of scintillant liquid (Emulsifier Safe, Packard). All the experiments are performed in triplicate.

With `Cc1ccc(CNCC2(Cl)CCN(C(=O)c3ccc(F)c(Cl)c3)CC2)nc1` [Compound 1-9, (3-chloro-4-fluorophenyl)-(4-chloro-4-{[(5-methylpyridin-2-ylmethyl)amino]-methyl}piperidin-1-yl)methanone], the “Selectivity 5-HT1A/D2” value on 5-HT1A receptors [1] (ratio of 5-HT1A to D2 affinity) is recorded as above 1000. Besides, the Ki was 0.794 nM on 5-HT1A receptors [1] (read-out: 5-HT1A pKi (converted)) and above 10000 nM in assay [3]. Moreover, on 5-HT1A receptors [2], the Emax was 100%.
